Measured values taken from BindingDB's records for doi:10.1016/j.bmc.2006.08.003 (Hokuriku University, 2006).

Molecular target: T1, Lysosomal acid glucosylceramidase (Homo sapiens, UniProt P04062)
T1 sequence (P04062 whole entry): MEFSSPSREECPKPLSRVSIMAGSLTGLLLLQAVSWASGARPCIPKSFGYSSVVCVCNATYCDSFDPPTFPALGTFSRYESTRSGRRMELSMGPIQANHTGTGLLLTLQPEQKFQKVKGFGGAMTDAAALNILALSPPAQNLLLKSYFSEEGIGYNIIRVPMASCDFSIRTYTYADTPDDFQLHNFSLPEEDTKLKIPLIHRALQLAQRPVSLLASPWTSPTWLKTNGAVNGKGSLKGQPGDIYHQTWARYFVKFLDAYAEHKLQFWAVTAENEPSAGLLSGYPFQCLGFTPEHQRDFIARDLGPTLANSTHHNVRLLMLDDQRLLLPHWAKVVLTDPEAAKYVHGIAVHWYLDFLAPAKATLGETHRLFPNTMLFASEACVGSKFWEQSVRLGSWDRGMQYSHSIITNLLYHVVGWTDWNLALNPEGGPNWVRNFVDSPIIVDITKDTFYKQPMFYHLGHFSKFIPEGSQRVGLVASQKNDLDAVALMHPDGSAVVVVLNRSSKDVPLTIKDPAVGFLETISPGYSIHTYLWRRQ
Assay: In Vitro Enzyme Inhibition
Details: pH 5.5; 37 °C

Row | Compound | IC50 [µM] | Ki [µM]
1 | CN1C[C@H](O)[C@@H](O)[C@H](O)[C@H]1CO [(2R,3R,4R,5S)-2-(hydroxymethyl)-1-methylpiperidine-3,4,5-triol] | 150 | 
2 | CCCN1C[C@H](O)[C@@H](O)[C@H](O)[C@H]1CO [(2R,3R,4R,5S)-2-(hydroxymethyl)-1-propylpiperidine-3,4,5-triol] | 700 | 
3 | C[C@H]1N[C@H](CO)[C@@H](O)[C@H](O)[C@H]1O [(2R,3R,4R,5S,6R)-2-(hydroxymethyl)-6-methylpiperidine-3,4,5-triol] | 900 | 
4 | CCC[C@H]1N[C@H](CO)[C@@H](O)[C@H](O)[C@H]1O [(2R,3R,4R,5S,6R)-2-(hydroxymethyl)-6-propylpiperidine-3,4,5-triol] | 400 | 
5 | CCCC[C@H]1N[C@H](CO)[C@@H](O)[C@H](O)[C@H]1O [(2R,3S,4R,5R,6R)-2-butyl-6-(hydroxymethyl)piperidine-3,4,5-triol] |  | 110

Further lines, results first:

Row | IC50 [µM] | Ki [µM] | Compound
6 | 13 | 5.5 | CCCCCCN1C[C@H](O)[C@@H](O)[C@H](O)[C@H]1CO [(2R,3R,4R,5S)-1-hexyl-2-(hydroxymethyl)piperidine-3,4,5-triol]
7 | 0.82 | 0.42 | CCCCCCCCN1C[C@H](O)[C@@H](O)[C@H](O)[C@H]1CO [(2R,3R,4R,5S)-2-(hydroxymethyl)-1-octylpiperidine-3,4,5-triol]
8 | 0.5 | 0.28 | CCCCCCCC[C@H]1N[C@H](CO)[C@@H](O)[C@H](O)[C@H]1O [(2R,3R,4R,5S,6R)-2-(hydroxymethyl)-6-octylpiperidine-3,4,5-triol]
9 | 4.2 | 2.3 | CCCCCC[C@H]1N[C@H](CO)[C@@H](O)[C@H](O)[C@H]1O [(2R,3S,4R,5R,6R)-2-hexyl-6-(hydroxymethyl)piperidine-3,4,5-triol]
10 | 0.27 | 0.2 | CCCCCCCCC[C@H]1N[C@H](CO)[C@@H](O)[C@H](O)[C@H]1O [CN-DNJ]
